Assay results published in US7422848B2, “Hepatitis-B viral variants with reduced susceptibility to nucleoside analogs and uses thereof” (priority 2005, dated 2008).
Entries after “also recorded” stand apart in the source; their conditions may differ.

Experiments:
HBV [1] = test: Case study patient: antiviral therapy of chronic HBV infection (HBV DNA, ALT); format: in vivo, human; settings: patient after clinical breakthrough, IFN 9 MU/TIW 6 months, Hepsera 10 mg/day 14 months
Method: HBV DNA levels were measured by using a commercial liquid-hybridization assay (Digene, Maryland, US), with the lower limit of detection of this assay being 5 pg/mL of viral DNA.
Lamuvidine was continued after the development of clinical breakthrough. […] Hepsera™ (Adefovir dipovoxil) 10 mg/day was added to lamivudine monotherapy at 44th month of initial antiviral therapy and 3 months after stopping IFN.
Blood counts and liver-function tests (alanine and aspartate aminotransferases) were done according to routine biochemical procedures (Olympus AU 2700 autoanalyzer, Japan).

HBV [2] = settings: human, in vivo; cited from earlier work
wild type HBV = test: HBV replication in transiently transfected Huh7 cell lines (Real-time PCR), wild type HBV; settings: supernatant at end of 5th day
HBV [3] = test: Published clinical studies of ADF (Perrillo 2004, Peters 2004, Angus 2003, Yang 2003); settings: ADF added to the therapy; implied from cited studies
HBV [4] = test: Example 3: second patient, antiviral therapy of HBV infection (HBV DNA, ALT, AST); format: in vivo, human; settings: lamivudine (Zeffix) 100 mg/day; before breakthrough
From the text: A person is a patient with HBsAg (+) and Anti-HBe (+).

[5] = 0.1 μM antiviral, 3 independent experiments
[6] = 1 μM antiviral, 3 independent experiments

| Compound | ALT and HBV replication response when added to ongoing lamivudine (in words) (HBV [1]) | ALT and HBV replication response when added to ongoing lamivudine (in words) (HBV [1]; listed as Hepsera™) | Adefovir treated patients revealing the resistance mutation rtN236T (HBV [2]) | HBV replication in transiently transfected Huh7 cell lines (Mean log HBV copy number ± standard deviation) (wild type HBV; [5]) | HBV replication in transiently transfected Huh7 cell lines (Mean log HBV copy number ± standard deviation) (wild type HBV; [6]) | HBV replication in transiently transfected Huh7 cell lines (Mean log HBV copy number ± standard deviation) (wild type HBV; 10 μM antiviral, n.d. = not detectable) | Patients not achieving a significant reduction in HBV DNA levels (HBV [3]) | HBV DNA levels following lamivudine treatment (HBV [4]) |
| --- | --- | --- | --- | --- | --- | --- | --- | --- |
| CC(C)(C)C(=O)OCOP(=O)(COCCn1cnc2c(N)ncnc21)OCOC(=O)C(C)(C)C [adefovir dipivoxil] | neither suppressed HBV replication nor decreased serum ALT levels | neither inhibition of HBV replication nor ALT normalization occurred; also recorded: did not lead to inhibition of HBV replication and ALT normalisation |  |  |  |  |  |  |
| Nc1ncnc2c1ncn2CCOCP(=O)(O)O [Adefovir, 9-(2-phosphonyl-methoxyethyl)-adenine] |  |  | 1.7-2.5% | 1.15 ± 1.62 log HBV copy number | 0.32 ± 0.58 log HBV copy number | no detectable HBV DNA | 8-15% |  |
| Nc1ccn([C@@H]2CS[C@H](CO)O2)c(=O)n1 [3TC, β-L-(−)-2′,3′-dideoxy-3′-thiacytidine] |  |  |  | 4.1 ± 0.8 log HBV copy number | 2.32 ± 1.62 log HBV copy number |  |  | less than 5 pg/mL |
